# Columns and labels:
# TMD8 = experiment: Combination study with tazemetostat (synergy by IC50 shifts or Calcusyn); assay type: cell-based; details: TMD8 (ABC)
# Method: (§1) Synergy was assessed by IC50 shifts or Calcusyn. [table]
# SU-DHL5 = experiment: as above; assay type: cell-based; details: SU-DHL-5 (EZH2 wt)
# Method: as §1
# KARPAS-422 = experiment: as above; assay type: cell-based; details: KARPAS-422 (EZH2 mutant)
# Method: as §1
# Cells = experiment: Apoptosis, single agents or combination, 10 days (FIG. 6B); assay type: cell-based
# Method: (§2) FIG. 6. A) Cells were treated for 7 days with single agents or in combination. […] This effect is not seen in the ABC cell line, TMD8. B) Cells were treated for 10 days with single agents (100 ng/mL CD40L) or in combination.
# Oral bioavailability = details: in vivo
# IκBα in SU-DHL-5 cells = experiment: IκBα degradation in response to CD40L (FIG. 7B); assay type: cell-based; details: 4-day treatment, CD40L 500 ng/mL
# B-cell lymphomas = details: phase I; patients with B-cell lymphomas; cited from earlier work
# PRDM1 (BLIMP1) in TMD8 = experiment: PRDM1 (BLIMP1) expression by qPCR or western blot; assay type: cell-based; details: ABC cell line TMD8; 7 days with 1 μM TAZ vs DMSO
# Method: (§3) FIG. 4. Cells were treated for 7 days with 1 μM TAZ or DMSO.
# [1] = test system: PRDM1 (BLIMP1) in GCB lines; experiment: PRDM1 (BLIMP1) expression by qPCR or western blot; assay type: cell-based; details: all GCB lines; 7 days with 1 μM TAZ vs DMSO
# Method: as §3
# [2] = test system: SU-DHL-5 cell line xenograft; experiment: Cell line xenograft model, tumor growth; assay type: in vivo; details: SU-DHL-5 xenograft model
# Text: (§4) FIG. 1. A) 14 evaluable NHL patients treated (V. Ribrag ASH 2015): 13 WT+1 mutant by cobas® EZH2 Mutation Test (in development, Roche Molecular Systems, Inc.)*Cheson Criteria. B) EZH2 mutant cell lines are more sensitive to TAZ in vitro. […] Cell of origin of cell lines determined by RNAseq analysis (Scott et al. Blood 2014).
# [3] = test system: OCI-LY19 cell line xenograft; experiment: Cell line xenograft model, tumor growth; assay type: in vivo
# Text: as §4
# DLBCL cell lines = experiment: RNAseq GSEA for plasma and memory cell gene sets; assay type: cell-based; details: 1 μM TAZ for 4 days; KARPAS-422, SU-DHL-6, Farage, SU-DHL-5, TMD8, Toledo
# Method: FIG. 3. […] RNAseq data from KARPAS-422 (EZH2 mutant GCB), SU-DHL-6 (EZH2 mutant GCB) Farage (EZH2 wt GCB), SU-DHL-5 (EZH2 wt GCB), TMD8 (EZH2 wt ABC) and Toledo (EZH2 wt ABC) treated with 1 μM TAZ for 4 days was analyzed using GSEA (Broad Institute) for the presence of plasma and memory cell gene sets.
# [4] = test system: PRDM1 in SU-DHL-5 (wt EZH2); experiment: PRDM1 expression after co-treatment with TAZ and CD40L (FIG. 7A); assay type: cell-based; details: 14-day co-treatment
# [5] = test system: H3K27 trimethylation in KARPAS-422; experiment: H3K27 trimethylation inhibition (FIG. 6C); assay type: cell-based; details: KARPAS-422, mutant EZH2 cell line
# Method: as §2
# GCB lines = experiment: Combination of CD40L with TAZ (FIG. 5); assay type: cell-based
Molecule,Combination effect with TAZ (FIG. 5) (TMD8),Combination effect with TAZ (FIG. 5) (SU-DHL5),Combination effect with TAZ (FIG. 5) (KARPAS-422),"apoptosis, single agent compared to DMSO (Cells)",oral bioavailability (Oral bioavailability),IκBα degradation in response to CD40L (IκBα in SU-DHL-5 cells),clinical response (B-cell lymphomas),PRDM1 (BLIMP1) expression (PRDM1 (BLIMP1) in TMD8),PRDM1 (BLIMP1) expression [1],tumor growth in response to TAZ treatment [2],tumor growth in response to TAZ treatment [3],"plasma cell and memory cell gene sets (RNAseq, GSEA) (DLBCL cell lines)","apoptosis, combination with TAZ compared to TAZ single agent (Cells; 100 ng/mL CD40L)","PRDM1 expression, co-treatment with TAZ [4]",effect on TAZ inhibition of H3K27 trimethylation [5],Combination effect with TAZ (FIG. 5) (GCB lines)
COc1cc(Nc2ncc(F)c(Nc3ccc4c(n3)NC(=O)C(C)(C)O4)n2)cc(OC)c1OC [Tamatinib],Synergy,Synergy,Synergy,,,,,,,,,,,,,
CCN(c1cc(-c2ccc(CN3CCOCC3)cc2)cc(C(=O)NCc2c(C)cc(C)[nH]c2=O)c1C)C1CCOCC1 [tazemetostat],,,,significant increase of apoptosis,orally bioavailable,does not affect,objective clinical responses,slight decrease,increase,tumor growth inhibition,tumor growth inhibition,induces a gene set that is heavily enriched for plasma cell and memory cell genes,,,,
"CD40L: recombinant CD40L, a B-cell co-stimulatory molecule (protein, UniProt P29965 113-261, looked up) CD40 ligand, soluble form: MQKGDQNPQIAAHVISEASSKTTSVLQWAEKGYYTMSNNLVTLENGKQLTVKRQGLYYIYAQVTFCSNREASSQAPFIASLCLKSPGRFERILLRAANTHSSAKPCGQQSIHLGGVFELQPGASVFVNVTDPSQVSHGTGFTSFGLLKL",slight synergy,,,,,,,,,,,,significant decrease of apoptosis,up-regulation of PRDM1,does not affect,antagonism

# Reference: patent publication US11147819B2, “EZH2 inhibitors for treating cancer” (Epizyme, Inc., priority 2016, dated 2021)
